Measurements as given in US20080139664A1, “ANTI-GLYCATION AGENTS FOR PREVENTING AGE-, DIABETES-, AND SMOKING-RELATED COMPLICATIONS” (NATIONAL RESEARCH COUNCIL OF CANADA, priority 2001, published 2008).
Values belong to the molecule of their own block, whether it stands above or below them.

Experiments:
[1] = test system: bovine serum albumin (BSA); assay: Maillard fluorescence-based assay of AGEs formation, IC50 determination (BSA + D-ribose); details: for IC50: inhibition of Maillard fluorescence development, 0.075 mM BSA, 50 mM D-ribose, 37° C., 5 days
Description: During the glycation reaction between proteins and reducing sugars, a specific fluorescence with excitation and emission wavelength of 370 nm and 440 nm, respectively, is observed. […] The assay was based on the progressive development of the characteristic Maillard fluorescence (370 nm Ex and 440 nm Em) during the progress of the glycation reaction.
The final assay volume was 200 μl and each assay well contained 0.075 mM BSA, and 50 mM D-ribose. Compounds were assayed at 3 different concentration levels (0.003, 0.03, and 0.3 mg/mL) to determine the effect of concentration on inhibition. Samples were incubated for 5 days.
The Maillard fluorescence was directly measured from the reaction solution, except for the anti-glycants that quenched the Maillard fluorescence, which were analyzed by the earlier-described HPLC method.
Solutions were incubated in microtitre plates (96 wells) at 37° C. for 5 days in a closed system.
After one hour incubation at 37° C., fluorescence readings were taken.
The IC50 values of the compounds that quenched the fluorescence of the glycated BSA were analyzed by on-line monitoring of the fluorescence of the glycated BSA separated from the fluorescence quenching assay compound by RP-HPLC. The elution profile was monitored by UV-diode array and by fluorescence (λex=370 nm, λem=440 nm). […] The incubation conditions were the same as above.

lysozyme = assay: ESI-MS of lysozyme glycoforms after incubation with D-ribose; details: 37° C., 5 days; for Peak area as % of total area of all glycoforms, 14,569: lysozyme + 2D-ribose − 2H2O (14,569 Da); for Peak area as % of total area of all glycoforms, 14,551: lysozyme + 2D-ribose − 3H2O (14,551 Da); for Peak area as % of total area of all glycoforms, 14,533: lysozyme + 2D-ribose − 5H2O (14,533 Da); for Peak area as % of total area of all glycoforms, 14,515: lysozyme + 2D-ribose − 6H2O (14,515 Da); for Peak area as % of total area of all glycoforms, 14,419: lysozyme + D-ribose − 2H2O (14,419 Da); for Peak area as % of total area of all glycoforms, 14,401: lysozyme + D-ribose − 3H2O (14,401 Da); for Peak area as % of total area of all glycoforms, 14,437: lysozyme + D-ribose − H2O (14,437 Da); for Peak area as % of total area of all glycoforms, 14,496: lysozyme + D-ribose − H2O with one carboxymethylated Lys residue (14,496 Da); for Peak area as % of total area of all glycoforms, 14,364: lysozyme with one carboxymethylated Lys residue (14,364 Da); for Peak area as % of total area of all glycoforms, 14,305: unmodified lysozyme (14,305 Da);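 as to all read-outs here: lysozyme incubated with D-ribose, with or without anti-glycation agents, then separated by reversed-phase HPLC and analysed by electrospray mass spectrometry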
Description: The effect of anti-glycation agents on the accumulation of glycated forms (glycoforms) of protein was evaluated by using electrospray mass spectrometry (ESI-MS). As the molecular mass of BSA was too large to monitor the small mass changes of its glycoforms, lysozyme was incubated with D-ribose and anti-glycants. Lysozyme and its glycoforms were isolated by RP-HPLC and analyzed by mass spectrometry.
Samples of lysozyme (0.756 mM; 4.54 mM of Lys residues) and D-ribose (50 mM) were incubated in the presence and absence of the selected anti-glycation agents at 37° C. for 5 days and subjected to electrospray mass spectrometry (ESI-MS) in order to characterize the protein intermediates as well as carboxymethylated lysozyme. Prior to MS measurements, the proteins were isolated by reversed phase-HPLC and were semi-dried by freeze drying.

IC50 [1]: 350 µM
Compound: NC(=O)c1ccc([N+](=O)[O-])cc1Cl [Aklomide]

Compound: CC[C@@]1(O)C[C@H](O[C@H]2C[C@H](N(C)C)[C@H](O[C@H]3C[C@H](O)[C@H](O[C@H]4CCC(=O)[C@H](C)O4)[C@H](C)O3)[C@H](C)O2)c2c(cc3c(c2O)C(=O)c2c(O)cccc2C3=O)[C@H]1C(=O)OC [Aclarubicin]
IC50 [1]: 2500 µM

IC50 [1]: 950 µM
Compound: Cn1c([N+](=O)[O-])cnc1COC(N)=O [Ronidazole]

Compound: COc1ccc(O)c(C(C)(C)C)c1 [BHA]
IC50 [1]: > 4000 µM

Compound: O=[N+]([O-])c1ncc[nH]1 [2-Nitroimidazole]
IC50 [1]: > 4000 µM

Compound: COCC(N)c1ccc(O)c(O)c1 (stereo not drawn) [3,4-Dihydroxy-1-[(α-amino-β-methoxy)ethyl]benzene]
IC50 [1]: 78 µM

Compound: Nc1ccc(C(=O)O)c(O)c1 [4-Amino-salicylic acid]
IC50 [1]: > 4000 µM

Compound: Cc1cc2c(C(C)C)c(O)c(O)c(C=O)c2c(O)c1-c1c(C)cc2c(C(C)C)c(O)c(O)c(C=O)c2c1O [Gossypol]
IC50 [1]: 110 µM

IC50 [1]: 510 µM
Compound: COc1ccc(-c2cc(=O)c3c(O)cc(O)cc3o2)cc1 [Acacetin]

Compound: O=[N+]([O-])c1cc([As](=O)(O)O)ccc1O [Roxarsone]
Peak area as % of total area of all glycoforms, 14,569 (lysozyme): 5.1%
Peak area as % of total area of all glycoforms, 14,551 (lysozyme): 1.3%
Peak area as % of total area of all glycoforms, 14,533 (lysozyme): 1.2%
Peak area as % of total area of all glycoforms, 14,515 (lysozyme): 0.0%
Peak area as % of total area of all glycoforms, 14,419 (lysozyme): 3.1%
Peak area as % of total area of all glycoforms, 14,401 (lysozyme): 0.0%
Peak area as % of total area of all glycoforms, 14,437 (lysozyme): 27.0%
Peak area as % of total area of all glycoforms, 14,496 (lysozyme): 0.0%
Peak area as % of total area of all glycoforms, 14,364 (lysozyme): 0.0%
Peak area as % of total area of all glycoforms, 14,305 (lysozyme): 62.4%
IC50 [1]: 230 µM

IC50 [1]: 810 µM
Compound: Nc1ncc([N+](=O)[O-])cn1 [2-Amino-5-nitropyrimidine]
Peak area as % of total area of all glycoforms, 14,569 (lysozyme): 4.7%
Peak area as % of total area of all glycoforms, 14,551 (lysozyme): 3.8%
Peak area as % of total area of all glycoforms, 14,533 (lysozyme): 2.0%
Peak area as % of total area of all glycoforms, 14,515 (lysozyme): 0.9%
Peak area as % of total area of all glycoforms, 14,419 (lysozyme): 7.7%
Peak area as % of total area of all glycoforms, 14,401 (lysozyme): 0.0%
Peak area as % of total area of all glycoforms, 14,437 (lysozyme): 23.0%
Peak area as % of total area of all glycoforms, 14,496 (lysozyme): 0.0%
Peak area as % of total area of all glycoforms, 14,364 (lysozyme): 3.6%
Peak area as % of total area of all glycoforms, 14,305 (lysozyme): 52.9%

Compound: NCCc1cc(O)c(O)cc1O [6-Hydroxydopamine]
maximum percentage of the inhibition ([1]; Maillard fluorescence, listed if significantly lower than 100%): 65%)
IC50 [1]: 95 µM

IC50 [1]: > 4000 µM
Compound: O=c1cc(-c2ccc(O)c(O)c2)oc2ccc(O)cc12 [6,3′,4′-Trihydroxyflavone]
Peak area as % of total area of all glycoforms, 14,569 (lysozyme): 4.0%
Peak area as % of total area of all glycoforms, 14,551 (lysozyme): 4.0%
Peak area as % of total area of all glycoforms, 14,533 (lysozyme): 1.6%
Peak area as % of total area of all glycoforms, 14,515 (lysozyme): 0.6%
Peak area as % of total area of all glycoforms, 14,419 (lysozyme): 8.8%
Peak area as % of total area of all glycoforms, 14,401 (lysozyme): 0.3%
Peak area as % of total area of all glycoforms, 14,437 (lysozyme): 21.5%
Peak area as % of total area of all glycoforms, 14,496 (lysozyme): 0.0%
Peak area as % of total area of all glycoforms, 14,364 (lysozyme): 2.0%
Peak area as % of total area of all glycoforms, 14,305 (lysozyme): 56.4%

IC50 [1]: 3500 µM
Compound: CN1CC(O)C2=C/C(=N/NC(N)=O)C(=O)C=C21 (stereo not drawn) [Carbazochrome]

Compound: O=[N+]([O-])c1ccc(O)cc1 [p-Nitrophenol]
IC50 [1]: > 4000 µM

Compound: NC(=O)c1cc([N+](=O)[O-])cc([N+](=O)[O-])c1 [3,5-Dinitrobenzamide]
IC50 [1]: 780 µM

IC50 [1]: > 4000 µM
Compound: CCOC(=O)[C@@H](N)CS [L-Cysteine ethyl ester]
